The text below walks through data of ChEMBL document CHEMBL1177687, “Synthesis and CYP24A1 inhibitory activity of N-(2-(1H-imidazol-1-yl)-2-phenylethyl)arylamides” (Bioorg Med Chem, 2010).

In one assay the target is T1, 1,25-dihydroxyvitamin D(3) 24-hydroxylase, mitochondrial (Homo sapiens, UniProt Q07973).
T1 sequence (Q07973 whole entry): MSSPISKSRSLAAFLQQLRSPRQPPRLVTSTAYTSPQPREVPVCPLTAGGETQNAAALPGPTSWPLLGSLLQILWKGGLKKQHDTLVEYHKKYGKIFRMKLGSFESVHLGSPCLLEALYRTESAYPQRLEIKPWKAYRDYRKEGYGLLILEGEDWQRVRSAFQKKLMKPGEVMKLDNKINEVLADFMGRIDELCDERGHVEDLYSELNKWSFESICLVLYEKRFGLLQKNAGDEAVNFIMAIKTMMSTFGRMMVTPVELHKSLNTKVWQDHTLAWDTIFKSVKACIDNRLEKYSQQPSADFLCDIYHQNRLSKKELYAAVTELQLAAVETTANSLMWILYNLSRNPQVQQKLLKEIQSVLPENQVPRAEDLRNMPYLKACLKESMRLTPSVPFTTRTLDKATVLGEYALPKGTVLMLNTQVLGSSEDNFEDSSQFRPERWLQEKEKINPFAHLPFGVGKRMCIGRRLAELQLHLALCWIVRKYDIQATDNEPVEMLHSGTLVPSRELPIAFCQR
Nature of the assay: Inhibition of CYP24A1. In kind it is ADME.
The IC50 is the concentration at which inhibition is half-maximal. `O=C(NC[C@@H](c1ccccc1)n1ccnc1)c1ccc(-c2ccc(Cl)cc2)cc1` registered a half-maximal inhibitory concentration (IC50) of 0.0151 µM.

The target of a further assay is T1, 1,25-dihydroxyvitamin D(3) 24-hydroxylase, mitochondrial. As to the kind of experiment: Inhibition of human recombinant CYP24A1 expressed in chinese hamster V79 cells using [3H-1-beta]calcitriol after 60 mins by scintillation counting. The class given is ADME, cell-based.
Consider `COc1ccc2cc(C(=O)NCC(c3ccccc3)n3ccnc3)oc2c1` (centres undefined), for which the IC50 worked out at 36.9 µM.
As to `O=C(NCC(c1ccccc1)n1ccnc1)c1cc2cc([N+](=O)[O-])ccc2o1` (centres undefined), the IC50 amounted to 6.4 µM.
For `O=C(NCC(c1ccc(F)cc1)n1ccnc1)c1cc2ccccc2o1` (centres undefined), the IC50 was found to be 2.8 µM.
As to `O=C(NCC(c1ccc(Cl)cc1)n1ccnc1)c1cc2ccccc2o1` (centres undefined), the IC50 turned out to be 10.6 µM.
As to `O=C(NCC(c1ccccc1)n1ccnc1)c1cc2ccccc2o1` (centres undefined), the IC50 came out at 4 µM.
As for `O=C(NCC(c1ccccc1)n1ccnc1)c1ccc(/C=C/c2ccccc2)cc1` (centres undefined), the IC50 was 0.3 µM.
On the same count and under the same terms, the figure for `O=C(NCC(c1ccccc1)n1ccnc1)c1ccc(Cc2ccccc2)cc1` (centres undefined) is 72 µM; for `O=C(NCC(c1ccccc1)n1ccnc1)c1ccc(Br)cc1` (centres undefined) it is 23 µM.
